Source: patent US7732568B2, “Methods for preventing and treating Alzheimer's disease” (AFFIRIS Forschungs-und Entwicklungs GmbH, priority 2003, dated 2010)
Entries after “also recorded” stand apart in the source; their conditions may differ. Where no end group is shown, it is not given here.

How the values were obtained:
Assay type in all cases: binding, mice
[1] = system: biotinylated monoclonal antibody specific for DAEFRH (natural N-terminal Aβ42 sequence); experiment: Inhibition assay for additional mimotopes (competition ELISA), Example 4 (FIGS. 4 and 5); conditions: for inhibition of binding of the monoclonal antibody to the original epitope (in words) / IC50 of inhibition of monoclonal antibody recognition of the original epitope: FIGS. 4 and 5; for Inhibitory capacity of mimotopes (Table 2): summary grade: strong, intermediate, weak, none; for IC50 of inhibition of monoclonal antibody recognition of the original epitope: plate-bound DAEFRH-BSA 0.1 μg/ml, peptides at different concentrations, 20 min, 37° C.
Protocol: FIGS. 4 and 5 describe the results of inhibition assays performed with mimotope peptides included in and obtained from the 5 libraries (as described). The mimotope peptides compete with the original epitope for recognition by the monoclonal antibody. Original epitope and mimotope peptides contain an additional C at the C-terminus (position 7) for coupling to a protein carrier (if desired).
(§1) After blocking with PBS/BSA 1% (200 μl/well, 12 h, 4° C.), the plates are washed 3× times with PBS/Tween. Then, biotinylated monoclonal antibody (1:2000, 50 μl/well) and peptides (50 μl/well) at different concentrations are added for 20 min. at 37° C. The plates are washed 3× times with PBS/Tween and are incubated with horseradish peroxidase (HRP)-labeled streptavidin (100 μl/well, 30 min, RT). The plates are washed 5× times with PBS/Tween and are incubated with ABTS H2O2 (0.1% w/v, 10 to 45 min) and the reaction is stopped with citric acid followed by photometric evaluation (wavelength 405 nm).

[2] = system: biotinylated monoclonal antibody specific for DAEFRH (natural N-terminal Aβ42 sequence); experiment: Inhibition assay (competition ELISA): mimotope peptides compete with plate-bound DAEFRH-BSA for the monoclonal antibody, Example 3 (FIGS. 2 and 3); conditions: for inhibition of binding of the monoclonal antibody to the original epitope (in words): peptides at 50 to 0.0005 μg/ml, FIGS. 2 and 3; for Inhibitory capacity of mimotopes (Table 1): summary grade: strong, intermediate, weak, none
Protocol: FIGS. 2 and 3 describe the results of inhibition assays performed with mimotope peptides included in and obtained from the 5 libraries (as described). The mimotope peptides compete with the original epitope for recognition by the monoclonal antibody. Original epitope and mimotope peptides contain an additional C at the C-terminus for coupling to a protein carrier (if desired).
as §1, with “50, 5, 0.5, 0.05, 0.005, and 0.0005 μg/ml” for “different concentrations”, “ABTS+H2O2” for “ABTS H2O2”

[3] = system: biotinylated DAEFRH-specific mAb; experiment: ELISA with peptide libraries: detection of mimotopes by the DAEFRH-specific mAb; conditions: mimotopes from peptide libraries 1, 2 and 3
Protocol: The ELISA with each of the peptide libraries have been carried out following standard protocols:
The peptide library is dissolved in 100% DMSO (final concentration 10 mg/ml).
The peptide solution is further diluted in PBS.
The peptide mixture is coated overnight (4° C.) onto ELISA plates (Nunc Maxisorp, Germany), starting with 500 μg/well, and titrated to 100 ng/well.
The plates are washed 3× times with PBS/Tween 20 (0.1% v/v).
The plates are blocked with PBS/BSA (2 h at room temperature).
The plates are washed 3× times with PBS/Tween.
The plates are incubated with biotinylated DAEFRH-specific mAb (DAEFRH sequence disclosed as SEQ ID NO: 1) (10 μg/ml in PBS) for 4 h at room temperature.
The plates are incubated with streptavidin-horseradish-peroxidase (30 min at room temperature).
The plates are washed 5× times with PBS/Tween.
The plates are incubated with ABTS+H2O2 (0.1% w/v; 10 to 45 min) and the reaction is stopped with citric acid followed by photometric evaluation (wavelength 405 nm).

CC[C@H](C)[C@H](NC(=O)[C@H](CCCNC(=N)N)NC(=O)[C@H](CC(C)C)NC(=O)[C@H](CCC(=O)O)NC(=O)[C@H](CCCNC(=N)N)NC(=O)[C@@H](N)CC(=O)O)C(=O)N[C@@H](CS)C(=O)O [Peptide 1235, DRELRI]
inhibition of binding of the monoclonal antibody to the original epitope (in words) [1]: block epitope recognition | Inhibitory capacity of mimotopes (Table 2) [1]: strong

CC[C@H](C)[C@H](NC(=O)[C@H](CCCCN)NC(=O)[C@H](CC(C)C)NC(=O)[C@H](CCC(=O)O)NC(=O)[C@H](CCCCN)NC(=O)[C@@H](N)CC(=O)O)C(=O)N[C@@H](CS)C(=O)O [Peptide 1236, DKELKI]
inhibition of binding of the monoclonal antibody to the original epitope (in words) [1]: block epitope recognition | Inhibitory capacity of mimotopes (Table 2) [1]: weak

CC[C@H](C)[C@H](NC(=O)[C@H](CCCCN)NC(=O)[C@H](CC(C)C)NC(=O)[C@H](CCC(=O)O)NC(=O)[C@H](CCCNC(=N)N)NC(=O)[C@@H](N)CC(=O)O)C(=O)N[C@@H](CS)C(=O)O [Peptide 1237, DRELKI]
inhibition of binding of the monoclonal antibody to the original epitope (in words) [1]: block epitope recognition | Inhibitory capacity of mimotopes (Table 2) [1]: weak

N=C(N)NCCC[C@H](NC(=O)[C@H](Cc1ccccc1)NC(=O)[C@H](CCC(=O)O)NC(=O)[C@H](Cc1ccc(O)cc1)NC(=O)[C@@H](N)CCC(=O)O)C(=O)NCC(=O)N[C@@H](CS)C(=O)O [Peptide 1239, EYEFRG]
inhibition of binding of the monoclonal antibody to the original epitope (in words) [1]: block epitope recognition | IC50 of inhibition of monoclonal antibody recognition of the original epitope [1]: more than 0.5 μg/ml | Inhibitory capacity of mimotopes (Table 2) [1]: intermediate

C[C@H](NC(=O)[C@H](CC(=O)O)NC(=O)[C@H](CCCNC(=N)N)NC(=O)[C@H](Cc1ccccc1)NC(=O)[C@H](CCC(=O)O)NC(=O)[C@H](Cc1c[nH]c2ccccc12)NC(=O)[C@@H](N)CC(=O)O)C(=O)N[C@@H](CS)C(=O)O [Peptide 1241, DWEFRDA]
inhibition of binding of the monoclonal antibody to the original epitope (in words) [1]: block epitope recognition | Inhibitory capacity of mimotopes (Table 2) [1]: strong

CC[C@H](C)[C@H](NC(=O)[C@H](CCCNC(=N)N)NC(=O)[C@H](CC(C)C)NC(=O)[C@H](CCC(=O)O)NC(=O)[C@H](CCCCN)NC(=O)[C@@H](N)CC(=O)O)C(=O)N[C@@H](CS)C(=O)O [Peptide 3001, DKELRI]
inhibition of binding of the monoclonal antibody to the original epitope (in words) [2]: block epitope recognition | Inhibitory capacity of mimotopes (Table 1) [2]: strong

CC[C@H](C)[C@H](NC(=O)[C@H](CCCNC(=N)N)NC(=O)[C@H](CC(C)C)NC(=O)[C@H](CCC(=O)O)NC(=O)[C@H](Cc1c[nH]c2ccccc12)NC(=O)[C@@H](N)CC(=O)O)C(=O)N[C@@H](CS)C(=O)O [Peptide 3002, DWELRI]
inhibition of binding of the monoclonal antibody to the original epitope (in words) [2]: block epitope recognition | Inhibitory capacity of mimotopes (Table 1) [2]: intermediate

C[C@H](NC(=O)[C@@H](N)Cc1ccc(O)cc1)C(=O)N[C@@H](CCC(=O)O)C(=O)N[C@@H](Cc1ccccc1)C(=O)N[C@@H](CCCNC(=N)N)C(=O)NCC(=O)N[C@@H](CS)C(=O)O [Peptide 3005, YAEFRG]
inhibition of binding of the monoclonal antibody to the original epitope (in words) [2]: block epitope recognition | Inhibitory capacity of mimotopes (Table 1) [2]: intermediate

C[C@H](NC(=O)[C@@H](N)CCC(=O)O)C(=O)N[C@@H](CCC(=O)O)C(=O)N[C@@H](Cc1ccccc1)C(=O)N[C@@H](CCCNC(=N)N)C(=O)NCC(=O)N[C@@H](CS)C(=O)O [Peptide 3006, EAEFRG]
inhibition of binding of the monoclonal antibody to the original epitope (in words) [2]: block epitope recognition | Inhibitory capacity of mimotopes (Table 1) [2]: strong

N=C(N)NCCC[C@H](NC(=O)[C@H](Cc1ccccc1)NC(=O)[C@H](CCC(=O)O)NC(=O)[C@H](Cc1ccc(O)cc1)NC(=O)[C@@H](N)CC(=O)O)C(=O)NCC(=O)N[C@@H](CS)C(=O)O [Peptide 3007, DYEFRG]
inhibition of binding of the monoclonal antibody to the original epitope (in words) [2]: block epitope recognition | Inhibitory capacity of mimotopes (Table 1) [2]: strong

CC(C)C[C@H](NC(=O)[C@@H](N)CCC(=O)O)C(=O)N[C@@H](CCC(=O)O)C(=O)N[C@@H](Cc1ccccc1)C(=O)N[C@@H](CCCNC(=N)N)C(=O)NCC(=O)N[C@@H](CS)C(=O)O [Peptide 3008, ELEFRG]
Inhibitory capacity of mimotopes (Table 1) [2]: weak

N=C(N)NCCC[C@H](NC(=O)[C@H](Cc1ccccc1)NC(=O)[C@H](CCC(=O)O)NC(=O)[C@H](Cc1ccccc1)NC(=O)[C@@H](N)CO)C(=O)NCC(=O)N[C@@H](CS)C(=O)O [Peptide 3009, SFEFRG]
Inhibitory capacity of mimotopes (Table 1) [2]: weak

C[C@@H](O)[C@H](NC(=O)[C@H](CCCNC(=N)N)NC(=O)[C@H](Cc1ccccc1)NC(=O)[C@H](CCC(=O)O)NC(=O)[C@H](Cc1c[nH]c2ccccc12)NC(=O)[C@@H](N)CO)C(=O)N[C@@H](CS)C(=O)O [Peptide 4002, SWEFRT]
inhibition of binding of the monoclonal antibody to the original epitope (in words) [1]: block epitope recognition | IC50 of inhibition of monoclonal antibody recognition of the original epitope [1]: less than 0.4 μg/ml | Inhibitory capacity of mimotopes (Table 2) [1]: strong

DAEFRH (not fully specified (C-terminus)) [Peptide 1737, reference compound]
inhibition of binding of the monoclonal antibody to the original epitope (in words) [2]: inhibits recognition by the monoclonal antibody; also recorded: can successfully compete | inhibition of binding of the monoclonal antibody to the original epitope (in words) [1]: inhibits recognition by the monoclonal antibody; also recorded: can successfully compete

DIDYHR
detection by the monoclonal antibody produced according to example 1 [3]: can be detected

DIDYRR [DLDYRR (SEQ ID NO: 97)]
detection by the monoclonal antibody produced according to example 1 [3]: can be detected

DIGWRG [Peptide 3011]
inhibition of binding of the monoclonal antibody to the original epitope (in words) [2]: not inhibitory at the concentrations tested | Inhibitory capacity of mimotopes (Table 1) [2]: none

DISFRG [Peptide 3010]
inhibition of binding of the monoclonal antibody to the original epitope (in words) [2]: not inhibitory at the concentrations tested | Inhibitory capacity of mimotopes (Table 1) [2]: none

DLDYHR
detection by the monoclonal antibody produced according to example 1 [3]: can be detected

DLDYRR [DLDYRR (SEQ ID NO: 98)]
detection by the monoclonal antibody produced according to example 1 [3]: can be detected

DVDYHR
detection by the monoclonal antibody produced according to example 1 [3]: can be detected

DVDYRR
detection by the monoclonal antibody produced according to example 1 [3]: can be detected

EIDYHR
detection by the monoclonal antibody produced according to example 1 [3]: can be detected

ELDYHR
detection by the monoclonal antibody produced according to example 1 [3]: can be detected

GREFRN [Peptide 4003]
concentration at which the peptide is only inhibitory ([1]; FIG. 4): 10 µg/mL | inhibition of binding of the monoclonal antibody to the original epitope (in words) [1]: block epitope recognition | Inhibitory capacity of mimotopes (Table 2) [1]: weak

KKELRI [Peptide 1234]
inhibition of binding of the monoclonal antibody to the original epitope (in words) [1]: hardly inhibitory at the concentrations tested | Inhibitory capacity of mimotopes (Table 2) [1]: none

WHWSWR [Peptide 4004]
inhibition of binding of the monoclonal antibody to the original epitope (in words) [1]: not able to inhibit binding of the monoclonal antibody to the original epitope | Inhibitory capacity of mimotopes (Table 2) [1]: none

YREFFI [Peptide 3003]
inhibition of binding of the monoclonal antibody to the original epitope (in words) [2]: not able to inhibit binding of the monoclonal antibody to the original epitope | Inhibitory capacity of mimotopes (Table 1) [2]: none

YREFRI [Peptide 3004]
concentration at which the peptide is only inhibitory ([2]; FIG. 2): 50 µg/mL | inhibition of binding of the monoclonal antibody to the original epitope (in words) [2]: block epitope recognition | Inhibitory capacity of mimotopes (Table 1) [2]: weak
